# “Also recorded” adds a separate entry of the source.
# Legend:
# [1] = tested on: 3D organotypic corneal barrier; experiment: 3D organotypic corneal barrier passage (LC-MS/MS); assay type: in vitro ADME; conditions: repeated drug administration
# [2] = tested on: human corneal endothelial cells; experiment: Morphologic evaluation and cell viability, cornea endothelial cells; assay type: cell-based
# Experimental: In the morphologic evaluation, the cells at different time periods (1 h, 4 h, 24 h) were observed following different concentrations of drug administration.
# [3] = molecular target: T1, telomerase (Homo sapiens, UniProt O14746); experiment: Telomerase activity of cornea endothelial and epithelial cells; assay type: cell-based
# T1 construct: telomerase activity was evaluated in cornea endothelial cell HCEC-B4G12; endogenous in cells; host or cells: HCEC-B4G12 (DSMZ ACC 647)
# [4] = tested on: telomerase reverse transcriptase (TERT); experiment: TERT immunohistochemistry of eye tissues; assay type: in vivo, rabbit
# Text: This was characterized by weak telomerase activity in the endothelial layer with an expression of limited number of endothelial cells.
# [5] = tested on: human corneal epithelial cells; experiment: Morphologic evaluation and cell viability, cornea epithelial cells; assay type: cell-based
# [6] = tested on: cornea endothelial cells; experiment: Specular microscopy cornea endothelial cell count, TAED017 eye drops 6 months; assay type: in vivo, rabbit; conditions: for cell count, treatment vs control: 2nd and 5th months
# Text: 16-month-old male New Zealand rabbits were used in the study. […] When determining the starting age of rabbits and the duration of eye drop application (6 months), 16 months was chosen to correspond to adult human age, and the study period of 6 months was modeled as the period in which New Zealand rabbits aged 7.91 years (22.75 days for adult New Zealand rabbits, corresponding to 1 year for human age).
# In FIGS. 12-15, data are shown as mean±standard error. The statistical evaluations are based on CD (cornea endothelia cell density) values. All CD values were corrected to the baseline measurement (month 0) of the respective rabbit and this correction was made as a percentage [(CD value/CD baseline value)*100]. GraphPad Prism 8.0.2 software was used for all statistical analyses and visualizations. The treatment of the rabbits at the respective dose was compared between the left (TAED017 treatment) and right (non-treated control) eye, both temporally and time and side dependent. For all analyses, “2-way ANOVA test for repeated measures” was used. For data sets with missing data, this analysis was set as “mixed-effect analysis” by the program. “Tukey” and “sidak” tests were used for posthoc analyses. The p values for these tests are adjusted p values.
# [7] = tested on: telomere length in Corneal Endothelial Cells (CEC); experiment: Telomere length of corneal endothelial cells, treated versus untreated eyes; assay type: in vivo, rabbit; conditions: six months treatment
# Experimental: IG. 18 illustrates a graph showing percentage of telomere length increases in treated eyes (L) versus control (untreated eyes, R), with increasing dosages of telomerase activator. […] (Cy3=Fluorescence signal of telomere probe, Hoescht=fluorescence of the nuclei, Average R=Average of the control eye).
# To determine the mechanism by which treatment with TAED017 prevents Corneal Endothelial Cell (CEC) attrition, telomere lengths from CECs of both treated and untreated eyes were measured and compared.
# We then evaluated whether the observed effect of telomere lengthening in CECs also occurred in other ocular tissues. Rabbit eyes were treated for six months with TAED017, (one eye of each rabbit was treated while the other eye remained untreated, as a control group).
# [8] = Rabbit ocular pharmacokinetic model; assay type: in vivo
# Experimental: At the end of the fifth day, blood, tear, cornea, anterior chamber fluid, iris and lens tissues were collected at 30, 60, 120, 240 and 480 minutes following the last administration of 4 μg/50 μl. […] According to the results of the drug analysis at the 30th minute, the highest drug concentrations of 215.56 ng in the corneal tissue, 4 ng in the anterior chamber and 14.12 ng in the iris were detected individually, proving that the drug passes into the corneal tissue after application to the corneal surface and reaches the intraocular tissues.
# [9] = tested on: telomere length in corneal endothelial cells; experiment: Telomere length (TAT analysis) in corneal endothelial cells from treated rabbits; assay type: in vivo, rabbit; conditions: 6 months
# Experimental: Samples were received in paraffin.
# The sample is filtered to remove collagen residues. Telomere lengths were assessed using Life Length's.
# All measurements were performed in quintuplicate.
# [10] = molecular target: T1, telomerase; experiment: TeloTAGGG Telomerase PCR ELISA assay in HCEC-B4G12; assay type: cell-based; conditions: for % Telomerase Activity ± SD: 30 hours
# Experimental: TeloTAGGG™ Telomerase PCR ELISA assay was performed as described by manufacturer (Sigma-Aldrich).
# [11] = tested on: corneal endothelial cells; experiment: Corneal endothelial cell density (CD) by specular microscopy, rabbits treated 6 months; assay type: in vivo, rabbit
# Experimental: All experiments were designed and carried out in a randomized, double blind manner using placebos. Rabbits were housed for one week prior to the study, fed on standard laboratory food and allowed free access to water in a room at standard temperature and humidity conditions in a 12-h light/12-h dark cycle.
# All analyses were carried out using GraphPad Prism 5.0 (GraphPad Software, San Diego, CA, USA). Differences were considered to be significant at a level of P: : : : 0.001.
# [12] = tested on: corneal endothelium; experiment: Histopathology of corneal layer, treated rabbits; assay type: in vivo, rabbit
# Experimental: Eye tissue was fixed with 4% formaldehyde and embedded in paraffin for the histopathological assessment and processed according to routine light microscope tissue processing methods. 5 μm tissue sections stained with Hematoxylin-Eosin (H&E) were examined and photographed by Leica image analyzing system (Leica, Germany). All specimens were evaluated individually by three histologists who were blinded to the drug type and the treatment times. Histopathology was also performed to evaluate the corneal opacity, neovascularization, inflammatory cell density, vessel size and edema. Moreover, lens structure, scleral, choroidal and macular changes were analyzed by histopathology.
# [13] = cornea endothelial and epithelial cells, 48 hours
# T1 sequence (O14746 whole entry): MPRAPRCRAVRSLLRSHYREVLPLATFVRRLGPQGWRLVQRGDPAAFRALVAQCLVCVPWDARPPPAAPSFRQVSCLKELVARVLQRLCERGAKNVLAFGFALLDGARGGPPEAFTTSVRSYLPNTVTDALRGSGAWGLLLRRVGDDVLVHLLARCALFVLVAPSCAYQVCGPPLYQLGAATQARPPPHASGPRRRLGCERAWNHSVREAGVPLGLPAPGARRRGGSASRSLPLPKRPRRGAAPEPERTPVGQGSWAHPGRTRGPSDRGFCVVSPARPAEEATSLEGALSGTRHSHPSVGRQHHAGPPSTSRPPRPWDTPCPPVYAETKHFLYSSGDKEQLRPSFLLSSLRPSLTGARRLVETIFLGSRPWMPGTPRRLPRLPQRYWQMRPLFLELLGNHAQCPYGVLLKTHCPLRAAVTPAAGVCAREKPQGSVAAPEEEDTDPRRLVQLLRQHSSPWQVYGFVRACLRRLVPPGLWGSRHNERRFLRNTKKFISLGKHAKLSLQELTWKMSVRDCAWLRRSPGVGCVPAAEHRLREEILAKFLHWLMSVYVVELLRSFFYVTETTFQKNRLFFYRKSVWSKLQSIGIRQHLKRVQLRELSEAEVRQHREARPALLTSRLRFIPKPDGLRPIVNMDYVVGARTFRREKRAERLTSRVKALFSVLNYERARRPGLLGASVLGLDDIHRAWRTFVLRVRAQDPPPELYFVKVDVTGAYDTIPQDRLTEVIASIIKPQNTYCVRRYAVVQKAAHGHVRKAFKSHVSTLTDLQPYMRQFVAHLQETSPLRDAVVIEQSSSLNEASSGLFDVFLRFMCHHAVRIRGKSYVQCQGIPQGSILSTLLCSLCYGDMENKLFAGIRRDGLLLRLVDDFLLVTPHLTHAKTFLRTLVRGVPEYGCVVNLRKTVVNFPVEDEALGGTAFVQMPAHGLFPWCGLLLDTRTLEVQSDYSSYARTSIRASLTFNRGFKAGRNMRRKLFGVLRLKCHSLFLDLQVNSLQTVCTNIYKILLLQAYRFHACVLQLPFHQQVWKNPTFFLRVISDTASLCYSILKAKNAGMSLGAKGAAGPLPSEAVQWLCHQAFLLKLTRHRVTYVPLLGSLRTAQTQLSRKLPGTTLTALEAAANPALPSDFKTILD
smiles,measurement,setting,value
"CC(C)(O)[C@@H]1CC[C@](C)([C@H]2[C@@H](O)C[C@@]3(C)[C@@H]4C[C@H](O)[C@H]5C(C)(C)[C@@H](O)CC[C@@]56C[C@@]46CC[C@]23C)O1 [TAED017, Cycloastragenol]","amount crossing the corneal barrier, highest",[1]; 48th hour,1.35%
same,"amount crossing the corneal barrier, highest",[1]; 72nd hour,1.89%
same,morphologic change,"[2]; 40 μM and 80 μM, up to 24 hours",no significant changes
same,apoptotic cells in 20× microscope field,"[2]; 320 μM, 640 μM and 960 μM, after 1 h and 4 h",1-5
same,morphologic change,"[2]; 320 μM, 640 μM and 960 μM, as early as 5 minutes",cell-cell connections were disrupted and the cells became round
same,IC50,"[2]; cornea endothelial cells, read-out: IC50 dose (cell viability assays)",220 µM
same,doses that appear safe,"[2]; corneal endothelial cells, in vitro",≤ 80 µM
same,cell damage,"[2]; doses above 80 μM, prolonged drug exposure",significant apoptosis and lysis
same,apoptosis in HCECs,[2]; high concentrations (e.g. 160 μM and 320 μM),significantly induces apoptosis
same,concentrations at which telomerase activity reached its highest level,[3]; [13],"20 μM, 40 μM and 100 μM"
same,starting concentration of telomerase activity increase,[3]; [13],2 µM
same,telomerase activity after 100 μM concentration,[3]; [13],no higher telomerase activity
same,"TAED017 activity, epithelial versus endothelial cells",[3]; human corneal epithelial cells vs HCEC B4-G12,higher in corneal epithelial cells
same,starting concentration of telomerase activity increase,[3]; printed in brackets after 2 μM,100 ng/mL
same,"TERT immunoreactivity in cornea and iris, rank among dose groups",[4]; 80 μg/ml,lowest Tert immunoreactivity; also recorded: lowest levels
same,TERT immunostaining in the ciliary processes of iris tissue,[4]; 80 μg/ml,Prominent and dense tert antigen immunostaining
same,TERT staining in corneal endothelial cells,[4]; 160 μg and 240 μg/ml,continuous layer staining
same,TERT immunostaining in the ciliar processes,[4]; 160 μg/ml and 240 μg/ml,diffuse and very intense immunopositivity
same,"TERT immunoreactivity in cornea and iris, rank among dose groups",[4]; 240 μg/ml,highest reactivity; also recorded: highest levels
same,"TERT expression in cornea and iris, treated left eyes vs untreated",[4]; 80-240 μg/ml eye drops,significantly higher expression; also recorded: significantly elevated
same,TERT activity in the iris and choroidea vs untreated,[4]; treatment groups,significantly higher
same,concentration of first degenerative changes,[5]; after 24 hours,320 µM
same,IC50,"[5]; cornea epithelial cells, read-out: IC50 dose (cell viability assays)",740 µM
same,concentrations without morphological degenerative changes (safe),[5]; epithelial cells,≤ 160 μM
same,"cell count, difference between months in the treated eye",[6]; 4 μg/50 μl,no significant difference between the times
same,"cell count, overall comparison treated left vs untreated right eye","[6]; 4 μg/50 μl twice a day, two way ANOVA",no statistically significant difference
same,"cell count, treatment vs control",[6]; 4 μg/50 μl,no statistically significant difference
same,"cell count, treatment vs control",[6]; 8 μg/50 μl,no difference
same,"cell count, overall comparison treated left vs untreated right eye","[6]; 8 μg/50 μl, mixed-effects analysis",statistically significant difference
same,"cell count, difference between months in the treated eye",[6]; 12 μg/50 μl,statistically significant difference between the 2nd and 6th month
same,"cell count, treatment vs control",[6]; 12 μg/50 μl,no difference
same,"cell count, overall comparison treated left vs untreated right eye","[6]; 12 μg/50 μl, mixed-effects analysis",statistically significant difference
same,"CEC telomere length, treated vs untreated eyes",[7],significant increase; also recorded: longer than those from untreated eyes
same,"Tmax, all eye tissues","[8]; 4 μg/50 μl twice a day 5 days, after last administration",30 min
same,drug concentration in tears,[8]; 30 and 60 minutes,≤ 3 ng
same,"highest drug concentration, anterior chamber","[8]; 30th minute, 4 μg/50 μl",4 ng
same,"highest drug concentration, corneal tissue","[8]; 30th minute, 4 μg/50 μl",215.56 ng
same,"highest drug concentration, iris","[8]; 30th minute, 4 μg/50 μl",14.12 ng
same,highest level of drug absorbed to the corneal surface,[8]; proportion of applied drug,5.39%
same,"proportion of the drug that passed into the eye, iris tissue",[8]; proportion of applied drug,0.35%
"CC(C)(O)[C@@H]1CC[C@](C)([C@H]2[C@@H](O)C[C@@]3(C)[C@@H]4C[C@H](O)[C@H]5C(C)(C)[C@@H](O)CC[C@@]56C[C@@]46CC[C@]23C)O1 [cycloastragenol, Cycloastragenol]",2am Percentile Length,"[9]; GROUP B, 25 ng/ml","6,968 Base Pairs"
same,Median Length,"[9]; GROUP B, 25 ng/ml","11,431 Base Pairs"
same,Telomeres <3 Kbp,"[9]; GROUP B, 25 ng/ml",3.7%
same,2am Percentile Length,"[9]; GROUP C, 100 ng/ml","7,374 Base Pairs"
same,Median Length,"[9]; GROUP C, 100 ng/ml","11,543 Base Pairs"
same,Telomeres <3 Kbp,"[9]; GROUP C, 100 ng/ml",3.1%
same,2am Percentile Length,"[9]; GROUP D, 500 ng/ml","7,113 Base Pairs"
same,Median Length,"[9]; GROUP D, 500 ng/ml","11,552 Base Pairs"
same,Telomeres <3 Kbp,"[9]; GROUP D, 500 ng/ml",3.6%
same,% Telomerase Activity ± SD,[10]; 3.8 ng/ML,108 ± 5.27%
same,% Telomerase Activity ± SD,[10]; 7.8 ng/ML,114.42 ± 2.79%
same,% Telomerase Activity ± SD,[10]; 15.6 ng/ML,148.94 ± 49.54%
same,% Telomerase Activity ± SD,[10]; 125 ng/ML,43.14 ± 0.24%
same,% Telomerase Activity ± SD,[10]; 250 ng/ML,46.28 ± 2.02%
same,% Telomerase Activity ± SD,[10]; 500 ng/ML,54.38 ± 2.78%
same,% Telomerase Activity ± SD,"[10]; 10000 ng/ML, placebo (1% DMSO) = 100%",74.0 ± 10.45%
same,telomerase activity compared with negative control,[10]; 3.8-62.5 ng/ml,higher telomerase activity than negative control
same,"telomerase activity, times higher than the negative control",[10]; 62.5-31.25 ng/ml,7-10 times
same,telomerase activity compared with negative control,[10]; 125-1000 ng/ml,lower than negative control
same,concentration giving the highest activity of telomerase,[10]; HCEC-B4G12,62.5 ng/mL
same,Cell Density (CD) of cornea layer endothelial cells,"[11]; Group B, 25 ng/ml, month 0",2531.00
same,Cell Density (CD) of cornea layer endothelial cells,"[11]; Group B, 25 ng/ml, month 1",2612.38
same,change in cell density versus month 0,"[11]; Group B, 25 ng/ml, month 1",3%
same,higher cell density than negative control group,"[11]; Group B, 25 ng/ml, month 1",about 4%
same,higher cell density than placebo group,"[11]; Group B, 25 ng/ml, month 1",about 4%
same,Cell Density (CD) of cornea layer endothelial cells,"[11]; Group B, 25 ng/ml, month 3",2604.50
same,change in cell density versus month 0,"[11]; Group B, 25 ng/ml, month 3",3%
same,higher cell density than negative control group,"[11]; Group B, 25 ng/ml, month 3",~18%
same,higher cell density than placebo group,"[11]; Group B, 25 ng/ml, month 3",~18%
same,Cell Density (CD) of cornea layer endothelial cells,"[11]; Group B, 25 ng/ml, month 6",2545.88
same,change in cell density versus month 0,"[11]; Group B, 25 ng/ml, month 6",4%
same,higher cell density than negative control group,"[11]; Group B, 25 ng/ml, month 6",~19%
same,higher cell density than placebo group,"[11]; Group B, 25 ng/ml, month 6",~20%
same,Cell Density (CD) of cornea layer endothelial cells,"[11]; Group C, 100 ng/ml, month 0",2689.88
same,Cell Density (CD) of cornea layer endothelial cells,"[11]; Group C, 100 ng/ml, month 1",2741.13
same,Cell Density (CD) of cornea layer endothelial cells,"[11]; Group C, 100 ng/ml, month 3",2453.88
same,Cell Density (CD) of cornea layer endothelial cells,"[11]; Group C, 100 ng/ml, month 6",2472.38
same,Cell Density (CD) of cornea layer endothelial cells,"[11]; Group D, 500 ng/ml, month 0",2875.13
same,Cell Density (CD) of cornea layer endothelial cells,"[11]; Group D, 500 ng/ml, month 1",2835.38
same,Cell Density (CD) of cornea layer endothelial cells,"[11]; Group D, 500 ng/ml, month 3",2498.50
same,Cell Density (CD) of cornea layer endothelial cells,"[11]; Group D, 500 ng/ml, month 6",2488.88
same,"histopathological finding, corneal endothelium","[12]; Group B, 25 ng/ml, compared to group A",cell losses were observed in very few areas
same,"histopathological finding, corneal endothelium","[12]; Group C, 100 ng/ml",configuration and number of cells were found to be close to Group NC
same,"histopathological finding, corneal endothelium","[12]; Group D, 500 ng/ml, compared to Group B and Group C",more hypertrophic and place cell losses
same,concentration in eye tissues,"[8]; zero hour, after 5 days of eye drops, without last administration",below 1 ng
